Laboratory results taken from patent publication US20150071856A1, “ANTAGONISTIC PEPTIDES FOR FRIZZLED-1 AND FRIZZLED-2” (Universiteit Maastricht, priority 2013, published 2015).
Residues, ends and D or L forms follow the SMILES beside them.

Columns and labels:
C-FIT cells = assay: Differentiation assay (α-SMA, fibroblast to myofibroblast) in C-FIT cells; assay type: cell-based, rat
Text: For this assay, we used the same C-FIT cells as for the migration assay to study a second component of wound healing, namely, differentiation of fibroblasts into myofibroblasts. When wound healing starts, cells called fibroblasts migrate into the scar. These cells have no contractile properties; however, they can differentiate into myofibroblasts, which can actively contract. To study which signals influence the transition from fibroblast into myofibroblasts, we treated the C-FIT cells and harvested them for mRNA isolation. Next, we tested them for the presence of specific markers for myofibroblasts by reverse transcription of the mRNA and subsequent quantitative PCR analysis, which are absent in fibroblasts. One of those markers is α-smooth muscle actin, which makes the cells contract.
RNA was isolated using the Trizol method (Invitrogen). For the RT-PCR, the RNA was transcribed to cDNA with Iscript™ cDNA synthesis kit (Bio-Rad, Hercules Calif., USA), Syber green (Eurogentec, Ghent, Belgium) was used for the detection of cDNA levels and cyclophilin served as the house keeping gene. In Supplementary methods panel 5, the primer sequences are shown.

hFzd-4 = target: T1, hFzd-4 (Homo sapiens, UniProt Q9ULV1); assay: Receptor specificity: luciferase in HEK293 superTOPflash cells overexpressing hFzd-4; assay type: cell-based; details: UM206 1.10^−8 M
T1 construct: expressed in transfected cells; host or cells: HEK293 superTOPflash (transient, Fugene6, pcDNA3.1/hygro)
T1 sequence (Q9ULV1 37-537): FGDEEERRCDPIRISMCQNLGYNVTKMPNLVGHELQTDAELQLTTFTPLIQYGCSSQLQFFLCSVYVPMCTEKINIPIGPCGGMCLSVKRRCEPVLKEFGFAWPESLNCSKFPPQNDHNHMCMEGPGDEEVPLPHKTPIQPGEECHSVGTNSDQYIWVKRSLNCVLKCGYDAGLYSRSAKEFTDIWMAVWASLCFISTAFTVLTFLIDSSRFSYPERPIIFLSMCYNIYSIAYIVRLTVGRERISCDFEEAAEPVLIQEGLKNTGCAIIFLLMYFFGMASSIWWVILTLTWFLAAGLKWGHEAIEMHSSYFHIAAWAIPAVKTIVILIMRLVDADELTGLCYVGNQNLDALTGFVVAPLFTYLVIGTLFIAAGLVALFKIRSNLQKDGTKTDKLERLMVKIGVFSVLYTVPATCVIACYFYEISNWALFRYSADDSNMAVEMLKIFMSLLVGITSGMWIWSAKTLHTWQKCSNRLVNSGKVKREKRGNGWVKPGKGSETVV
Experimental: In FIG. 3, Panel E, the efficacy of UM206 to block the Wnt3a-induced activation of luciferase activity in HEK293 superTOPflash cells transfected with different Fzds is shown.
The cell lines were cultured in 75 cm^2 culture flasks (Corning, Schiphol, the Netherlands) in Dulbeco's modified essential medium with L-glutamine (2 mM), 10% fetal calf serum (Invitrogen, Merelbeke, Belgium), and 1% gentamycin (Sigma-Aldrich, Zwijndrecht, The Netherlands). Before starting the experiment, the cell lines were treated with plasmocin 25 μg/ml (Invivogen, Toulose, France) and tested with a mycoalert mycoplasma detection kit (Lonza, Rockland Me., USA). Cells were transiently transfected with Fugene6 (Roche, Indianapolis Ind., USA) with plasmid DNA, pcDNA3.1/hygro (Invitrogen) with frizzled-1/2/4 or Wnts 3a-5a or with pcDNA3.0 (Invitrogen) containing the β-catenin or frizzled-5 sequence. After transfection, the cells were cultured for 24 hours in conditioned medium, collected from the cultured L-cells, L-cells with Wnt3a or 5a (Invitrogen). At the same moment the antagonist was added.

Structure (SMILES): CSCC[C@H](NC(=O)CNC(=O)[C@H](CCC(=O)O)NC(=O)[C@H](CO)NC(=O)[C@@H](NC(=O)[C@H](CCCCN)NC(=O)[C@H](CC(N)=O)NC(=O)[C@H](CS)NC(C)=O)[C@@H](C)O)C(=O)N[C@@H](CC(=O)O)C(=O)NCC(=O)N[C@@H](CS)C(=O)N[C@@H](CCC(=O)O)C(=O)N[C@@H](CC(C)C)C(N)=O [UM206, Ac-Cys-Asn-Lys-Thr-Ser-Glu-Gly-Met-Asp-Gly-Cys-Glu-Leu-NH2] (Ac-CNKTSEGMDGCEL-NH2)
- effect on Wnt3a/Wnt5a-induced differentiation, α-SMA levels (C-FIT cells): completely blocks this differentiation
- effect on Wnt3a-induced luciferase activity, frizzled-4 (hFzd-4): no effect
